System: vesicular stomatitis virus particles (VSV) pseudotyped with EboV Zaire GP
Test: microbe, parasite or virus in culture
Format: cell-based
Settings: Vesicular stomatitis virus

SMILES | IC50 [µM]
O=C(NCC(=O)N1CCN(Cc2cc(Br)ccc2Cl)CC1)C1C2CC(F)(F)CC21 (stereo not drawn) [Compound 1356, N-(2-(4-(5-bromo-2-chlorobenzyl)piperazin-1-yl)-2-oxoethyl)-3,3-difluorobicyclo[3.1.0]hexane-6-carboxamide] | > 2
COC(=O)c1ccc(COc2ccc(Cl)cc2CN2CCN(C(=O)CNC(=O)C3CC3(F)F)CC2)cc1 (stereo not drawn) [Compound 1357, Methyl 4-((4-chloro-2-((4-((2,2-difluorocyclopropane-1-carbonyl)glycyl)piperazin-1-yl)methyl)phenoxy)methyl)benzoate] | 0.5
COC(=O)c1ccc(COc2ccc(Cl)cc2CN2CCN(C(=O)CNC(=O)C(F)(F)C(F)F)CC2)cc1 [Compound 1358, Methyl 4-((4-chloro-2-((4-((2,2,3,3-tetrafluoropropanoyl)glycyl)piperazin-1-yl)methyl)phenoxy)methyl)benzoate] | 0.2
Nc1ccc(-c2ccc(F)cc2)cc1CN1CCN(C(=O)CNC(=O)CC2CCC(F)(F)CC2)CC1 [Compound 1359, N-(2-(4-((4-Amino-4′-fluoro-[1,1′-biphenyl]-3-yl)methyl)piperazin-1-yl)-2-oxoethyl)-2-(4,4-difluorocyclohexyl)acetamide] | > 2
NC(=O)Nc1ccc(Br)cc1CN1CCN(C(=O)CNC(=O)CC2CCC(F)(F)CC2)CC1 [Compound 1360, N-(2-(4-(5-Bromo-2-ureidobenzyl)piperazin-1-yl)-2-oxoethyl)-2-(4,4-difluorocyclohexyl)acetamide] | > 2
NC(=O)Nc1ccc(Cl)cc1CN1CCN(C(=O)CNC(=O)CC2CCC(F)(F)CC2)CC1 [Compound 1361, N-(2-(4-(5-Chloro-2-ureidobenzyl)piperazin-1-yl)-2-oxoethyl)-2-(4,4-difluorocyclohexyl)acetamide] | > 2
Nc1ccc(Br)cc1CN1CCN(C(=O)CNC(=O)C2C3CC(F)(F)CC32)CC1 (stereo not drawn) [Compound 1362, N-(2-(4-(2-Amino-5-bromobenzyl)piperazin-1-yl)-2-oxoethyl)-3,3-difluorobicyclo[3.1.0]hexane-6-carboxamide] | > 2
O=C(CC12CC3CC(CC(C3)C1)C2)NCC(=O)N1CCN(Cc2c(Cl)cccc2Cl)CC1 [Compound 1363, 2-((1R,3R,5S)-Adamantan-1-yl)-N-(2-(4-(2,6-dichlorobenzyl)piperazin-1-yl)-2-oxoethyl)acetamide] | 1
NC(=O)c1ccc(Br)cc1CN1CCN(C(=O)CNC(=O)CC23CC4CC(CC(C4)C2)C3)CC1 [Compound 1364, 2-((4-((2-((1R,3R,5S)-Adamantan-1-yl)acetyl)glycyl)piperazin-1-yl)methyl)-4-bromobenzamide] | 1.9
O=C(CC1CCC(F)(F)CC1)NCC(=O)N1CCN(Cc2cc(Cl)cc(OC3CC3)c2)CC1 [Compound 1365, N-(2-(4-(3-Chloro-5-cyclopropoxybenzyl)piperazin-1-yl)-2-oxoethyl)-2-(4,4-difluorocyclohexyl)acetamide] | 1.6
O=C(CC1CCC(F)(F)CC1)NCC(=O)N1CCN(Cc2cc(Cl)ccc2Cl)CC1 [Compound 1366, N-(2-(4-(2,5-Dichlorobenzyl)piperazin-1-yl)-2-oxoethyl)-2-(4,4-difluorocyclohexyl)acetamide] | > 2
O=C(CC1CCC(F)(F)CC1)NCC(=O)N1CCN(Cc2cc(Cl)ccc2F)CC1 [Compound 1367, N-(2-(4-(5-chloro-2-fluorobenzyl)piperazin-1-yl)-2-oxoethyl)-2-(4,4-difluorocyclohexyl)acetamide] | > 2
O=C(CC1CCC(F)(F)CC1)NCC(=O)N1CCN(Cc2cc(Cl)c(F)cc2F)CC1 [Compound 1368, N-(2-(4-(5-chloro-2,4-difluorobenzyl)piperazin-1-yl)-2-oxoethyl)-2-(4,4-difluorocyclohexyl)acetamide] | > 2
O=C(CC1CCC(F)(F)CC1)NCC(=O)N1CCN(Cc2cc(Cl)cc(F)c2F)CC1 [Compound 1369, N-(2-(4-(5-Chloro-2,3-difluorobenzyl)piperazin-1-yl)-2-oxoethyl)-2-(4,4-difluorocyclohexyl)acetamide] | > 2
O=C(CC1CCC(F)(F)CC1)NCC(=O)N1CCN(Cc2cc(Br)ccc2F)CC1 [Compound 1370, N-(2-(4-(5-Bromo-2-fluorobenzyl)piperazin-1-yl)-2-oxoethyl)-2-(4,4-difluorocyclohexyl)acetamide] | ~2.2
N#Cc1ccc(Br)cc1CN1CCN(C(=O)CNC(=O)CC2CCC(F)(F)CC2)CC1 [Compound 1371, N-(2-(4-(5-Bromo-2-cyanobenzyl)piperazin-1-yl)-2-oxoethyl)-2-(4,4-difluorocyclohexyl)acetamide] | > 2
O=C(CC1CCC(F)(F)CC1)NCC(=O)N1CCN(Cc2cc(Cl)ccc2OC(F)(F)F)CC1 [Compound 1372] | > 2
O=C(CC1CCC(F)(F)CC1)NCC(=O)N1CCN(Cc2cc(Br)ccc2Cl)CC1 [Compound 1374, N-(2-(4-(5-Bromo-2-chlorobenzyl)piperazin-1-yl)-2-oxoethyl)-2-(4,4-difluorocyclohexyl)acetamide] | > 2

SMILES | IC50 [µM]
O=C(CC1CCC(F)(F)CC1)NCC(=O)N1CCN(Cc2cc(Br)ccc2NC(=O)C2CC2)CC1 [Compound 1375, N-(4-Bromo-2-((4-((2-(4,4-difluorocyclohexyl)acetyl)glycyl)piperazin-1-yl)methyl)phenyl)cyclopropanecarboxamide] | > 2
COC(=O)c1ccc(COc2ccccc2CN2CCN(C(=O)CNC(=O)C3(F)CC3)CC2)cc1 [Compound 1376, Methyl 4-((2-((4-((1-fluorocyclopropane-1-carbonyl)glycyl)piperazin-1-yl)methyl)phenoxy)methyl)benzoate] | > 2
O=C(CC1CCC(F)(F)CC1)NCC(=O)N1CCN(Cc2cc(Cl)ccc2NC(=O)C2CC2)CC1 [Compound 1378, N-(4-Chloro-2-((4-((2-(4,4-difluorocyclohexyl)acetyl)glycyl)piperazin-1-yl)methyl)phenyl)cyclopropanecarboxamide] | > 2
O=C(CC1CCC(F)(F)CC1)NCC(=O)N1CCN(Cc2cc(Cl)ccc2NS(=O)(=O)C2CC2)CC1 [Compound 1379, N-(2-(4-(5-Chloro-2-(cyclopropanesulfonamido)benzyl)piperazin-1-yl)-2-oxoethyl)-2-(4,4-difluorocyclohexyl)acetamide] | ~2.2
Nc1c(Cl)cc(Cl)cc1CN1CCN(C(=O)CNC(=O)CC2CCC(F)(F)CC2)CC1 [Compound 1381, N-(2-(4-(2-Amino-3,5-dichlorobenzyl)piperazin-1-yl)-2-oxoethyl)-2-(4,4-difluorocyclohexyl)acetamide] | > 2
O=C(CC1CCC(F)(F)CC1)NCC(=O)N1CCN(Cc2cccc(Cl)c2Cl)CC1 [Compound 1382, N-(2-(4-(2,3-Dichlorobenzyl)piperazin-1-yl)-2-oxoethyl)-2-(4,4-difluorocyclohexyl)acetamide] | > 2
O=C(CC1CCC(F)(F)CC1)NCC(=O)N1CCN(Cc2cc(Cl)cc(Cl)c2)CC1 [Compound 1383, N-(2-(4-(3,5-dichlorobenzyl)piperazin-1-yl)-2-oxoethyl)-2-(4,4-difluorocyclohexyl)acetamide] | > 2
COc1ccc(Cl)cc1CN1CCN(C(=O)CNC(=O)CC2CCC(F)(F)CC2)CC1 [Compound 1384, N-(2-(4-(5-Chloro-2-methoxybenzyl)piperazin-1-yl)-2-oxoethyl)-2-(4,4-difluorocyclohexyl)acetamide] | 0.33
Nc1cc(Cl)cc(CN2CCN(C(=O)CNC(=O)CC3CCC(F)(F)CC3)CC2)c1 [Compound 1385, N-(2-(4-(3-Amino-5-chlorobenzyl)piperazin-1-yl)-2-oxoethyl)-2-(4,4-difluorocyclohexyl)acetamide] | 2.2
Nc1ccc(Cl)cc1CN1CCN(C(=O)CNC(=O)C2C3CC(F)(F)CC32)CC1 [Compound 1386, (1R,5S,6r)-N-(2-(4-(2-Amino-5-chlorobenzyl)piperazin-1-yl)-2-oxoethyl)-3,3-difluorobicyclo[3.1.0]hexane-6-carboxamide] | 4.4
Nc1ccc(CN2CCN(C(=O)CNC(=O)CC3CCC(F)(F)CC3)CC2)cc1Cl [Compound 1387, N-(2-(4-(4-Amino-3-chlorobenzyl)piperazin-1-yl)-2-oxoethyl)-2-(4,4-difluorocyclohexyl)acetamide] | > 5
Nc1cc(Cl)cc(CN2CCN(C(=O)CNC(=O)C3CC34CCC(F)(F)CC4)CC2)c1 (stereo not drawn) [Compound 1388, N-(2-(4-(3-Amino-5-chlorobenzyl)piperazin-1-yl)-2-oxoethyl)-6,6-difluorospiro[2.5]octane-1-carboxamide] | 0.5
Nc1ccc(CN2CCN(C(=O)CNC(=O)C3CC34CCC(F)(F)CC4)CC2)cc1Cl (stereo not drawn) [Compound 1390, N-(2-(4-(4-Amino-3-chlorobenzyl)piperazin-1-yl)-2-oxoethyl)-6,6-difluorospiro[2.5]octane-1-carboxamide] | 1.1
CNc1ccc(Cl)cc1CN1CCN(C(=O)CNC(=O)C2CC23CCC(F)(F)CC3)CC1 (stereo not drawn) [Compound 1391, N-(2-(4-(5-Chloro-2-(methylamino)benzyl)piperazin-1-yl)-2-oxoethyl)-6,6-difluorospiro[2.5]octane-1-carboxamide] | 0.08 to 0.26
O=C(Nc1ccccc1)Nc1ncc(Cl)cc1CN1CCN(C(=O)CNC(=O)C2CC23CCC(F)(F)CC3)CC1 (stereo not drawn) [Compound 1392, N-(2-(4-((5-Chloro-2-(3-phenylureido)pyridin-3-yl)methyl)piperazin-1-yl)-2-oxoethyl)-6,6-difluorospiro[2.5]octane-1-carboxamide] | 1
O=C(Nc1ncc(Cl)cc1CN1CCN(C(=O)CNC(=O)C2CC23CCC(F)(F)CC3)CC1)NC1CC1 (stereo not drawn) [Compound 1393, N-(2-(4-((5-Chloro-2-(3-cyclopropylureido)pyridin-3-yl)methyl)piperazin-1-yl)-2-oxoethyl)-6,6-difluorospiro[2.5]octane-1-carboxamide] | > 5
Nc1ccc(C2CC2)cc1CN1CCN(C(=O)CNC(=O)C2CC23CCC(F)(F)CC3)CC1 (stereo not drawn) [Compound 1397] | 2.4 to 4.2
O=C(NCC(=O)N1CCN(Cc2cc(Cl)ccc2O)CC1)C1CC12CCC(F)(F)CC2 (stereo not drawn) [Compound 1398, N-(2-(4-(5-Chloro-2-hydroxybenzyl)piperazin-1-yl)-2-oxoethyl)-6,6-difluorospiro[2.5]octane-1-carboxamide] | 0.075 to 0.32
